Assay results published in ChEMBL document CHEMBL1201862, “PubChem BioAssay data set” (2004).
Each block holds one compound with its values, some of them ahead of it. Active and inactive are the calls of the source.

Columns and labels:
[1] = molecular target: T1, Tyrosine-protein phosphatase non-receptor type 7 (Homo sapiens, UniProt P35236); assay: HePTP (PTPN7) phosphatase inhibitor potency, SAR follow-up, biochemical, set 2 (AID 449736); assay type: functional
T1 sequence (P35236 whole entry): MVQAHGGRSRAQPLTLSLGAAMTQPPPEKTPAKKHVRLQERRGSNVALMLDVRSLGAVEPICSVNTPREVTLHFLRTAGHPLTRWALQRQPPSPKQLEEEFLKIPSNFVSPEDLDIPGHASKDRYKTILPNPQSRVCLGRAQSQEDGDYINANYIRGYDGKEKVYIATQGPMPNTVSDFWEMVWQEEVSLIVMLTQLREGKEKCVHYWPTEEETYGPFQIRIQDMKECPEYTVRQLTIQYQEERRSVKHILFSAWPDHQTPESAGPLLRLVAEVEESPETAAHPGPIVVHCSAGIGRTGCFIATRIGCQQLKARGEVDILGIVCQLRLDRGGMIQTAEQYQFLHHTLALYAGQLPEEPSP

[2] = off-target signal loss in HeLa-CEM21 co-culture – HeLa F-luc CTL cells, cherry-picked, counter-screen for HIV-1 Env fusion inhibitor project, dose response (AID 652040); assay type: functional, cell-based;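 note: potency for signal decrease marking cytotoxic or nonspecific inhibition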
[3] = cytotoxicity toward NIH3T3 fibroblasts, dose response, counter-screen, cell-based, ATP luminescence, mouse fibroblasts (AID 2010); assay type: functional;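 note: cells exposed to compound for about 90 hours before reading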
[4] = inhibitors of intracellular T. cruzi replication, confirmation, NIH3T3 host cells, beta-gal luminescence (AID 2044); assay type: functional, cell-based;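 note: intracellular parasites grown in NIH/3T3 mouse fibroblasts as host cells; luminescent beta-galactosidase reporter signal from transgenic T. cruzi replicating inside host cells; inhibitors lower the luminescence signal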
INS1 = assay: beta cell apoptosis inhibitors, cytokine rescue, dose response, luminescence, retest (AID 449756); assay type: functional, cell-based; conditions: Rattus norvegicus;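 note: cell death triggered by IL-1 beta plus TNF-alpha plus IFN-gamma mixture; protective hits raise ATP signal compared with cytokine alone wells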
[5] = inhibitors of HIV Env-driven cell fusion, dose response, cherry-pick (AID 652057); assay type: functional, cell-based
[6] = molecular target: G-protein coupled receptor 55 (Homo sapiens, UniProt Q9Y2T6); assay: GPR55 agonists via beta-arrestin recruitment, primary screen, imaging, U2OS cells, beta-arrestin-GFP redistribution (AID 1961); assay type: functional
HEK293 [7] = assay: HEK cell cytotoxicity by LDH release, dose response, cytotoxicity control for IDE activator project, fluorescence, HEK cells (AID 588440); assay type: functional, cell-based; conditions: Homo sapiens;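 note: cytotoxicity by LDH release measuring loss of membrane integrity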
HEK293 [8] = assay: optical interference in Abeta FP readout, dose response, artefact control for IDE activator project, biochemical, fluorescence polarization (AID 588442); assay type: functional, cell-based; conditions: Homo sapiens
[9] = ZM109 Env clade C HIV-1 fusion inhibitors, dose response, HeLa effector, CEM target cells, luciferase, cherry-pick (AID 652058); assay type: functional, cell-based
[10] = molecular target: Neurotensin receptor type 1 (Homo sapiens, UniProt P30989); assay type: functional;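 note: Image-based confirmatory dose-response assay measuring agonist activity at NTR1; NTR1-expressing U2OS osteosarcoma cells imaged for beta-arrestin GFP spot formation; agonist potency where compounds increase beta-arrestin recruitment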
Insulin-degrading enzyme [11] = molecular target: T2, Insulin-degrading enzyme (Homo sapiens, UniProt P14735); assay: activators of recombinant IDE enzyme, dose response, counter-screen for IDE activator project, biochemical, fluorescence polarization (AID 588681)
T2 sequence (P14735 whole entry): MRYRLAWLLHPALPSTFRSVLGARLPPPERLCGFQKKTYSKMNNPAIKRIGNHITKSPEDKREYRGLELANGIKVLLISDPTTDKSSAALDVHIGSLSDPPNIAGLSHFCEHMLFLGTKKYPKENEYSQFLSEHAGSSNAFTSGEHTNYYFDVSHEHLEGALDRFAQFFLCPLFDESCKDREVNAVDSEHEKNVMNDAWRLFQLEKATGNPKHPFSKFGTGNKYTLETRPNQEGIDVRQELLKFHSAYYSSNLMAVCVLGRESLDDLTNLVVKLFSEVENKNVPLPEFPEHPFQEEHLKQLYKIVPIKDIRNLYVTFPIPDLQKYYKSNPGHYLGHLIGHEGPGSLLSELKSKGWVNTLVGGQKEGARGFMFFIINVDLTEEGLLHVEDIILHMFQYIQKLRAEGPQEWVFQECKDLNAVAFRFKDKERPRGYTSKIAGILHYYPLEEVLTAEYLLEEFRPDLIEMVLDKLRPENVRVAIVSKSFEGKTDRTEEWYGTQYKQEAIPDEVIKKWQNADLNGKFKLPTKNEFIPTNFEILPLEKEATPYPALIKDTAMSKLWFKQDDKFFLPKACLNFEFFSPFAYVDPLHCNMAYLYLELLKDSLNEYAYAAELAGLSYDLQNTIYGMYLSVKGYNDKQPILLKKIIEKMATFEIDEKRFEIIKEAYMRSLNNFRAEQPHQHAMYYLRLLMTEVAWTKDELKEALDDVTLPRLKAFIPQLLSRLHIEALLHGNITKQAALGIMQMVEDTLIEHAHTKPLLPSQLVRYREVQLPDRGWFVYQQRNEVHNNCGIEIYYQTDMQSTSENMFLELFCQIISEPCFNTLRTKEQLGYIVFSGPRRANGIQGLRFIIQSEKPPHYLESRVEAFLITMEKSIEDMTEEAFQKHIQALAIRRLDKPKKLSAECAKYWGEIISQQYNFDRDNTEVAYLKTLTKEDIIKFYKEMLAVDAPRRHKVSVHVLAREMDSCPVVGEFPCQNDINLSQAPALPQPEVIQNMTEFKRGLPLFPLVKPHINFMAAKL

[12] = CEM21 lymphoblast cell cytotoxicity, dose response, cytotoxicity control for viral fusion inhibitor project, CellTiter-Glo luminescence, cherry-picked (AID 652042); assay type: functional, cell-based;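 note: potency for signal decrease meaning cytotoxicity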
[13] = inhibitors of clade B AD8 Env fusion, dose response, cell-based, cherry-pick (AID 652062); assay type: functional;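 note: luciferase signal from cell-cell fusion driven by HIV-1 clade B AD8 Env; potency is for inhibitors of fusion seen as a drop in luminescence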
Insulin-degrading enzyme [14] = molecular target: T2, Insulin-degrading enzyme; assay: activators of endogenous IDE in HEK cells, dose response, cell-based, fluorescence polarization (AID 588439); assay type: functional
[15] = molecular target: T3, Mannose-6-phosphate isomerase (Homo sapiens, UniProt P34949); assay: inhibitors of human PMI, primary screen, biochemical, fluorescence intensity, coupled assay (AID 1209)
T3 sequence (P34949 whole entry): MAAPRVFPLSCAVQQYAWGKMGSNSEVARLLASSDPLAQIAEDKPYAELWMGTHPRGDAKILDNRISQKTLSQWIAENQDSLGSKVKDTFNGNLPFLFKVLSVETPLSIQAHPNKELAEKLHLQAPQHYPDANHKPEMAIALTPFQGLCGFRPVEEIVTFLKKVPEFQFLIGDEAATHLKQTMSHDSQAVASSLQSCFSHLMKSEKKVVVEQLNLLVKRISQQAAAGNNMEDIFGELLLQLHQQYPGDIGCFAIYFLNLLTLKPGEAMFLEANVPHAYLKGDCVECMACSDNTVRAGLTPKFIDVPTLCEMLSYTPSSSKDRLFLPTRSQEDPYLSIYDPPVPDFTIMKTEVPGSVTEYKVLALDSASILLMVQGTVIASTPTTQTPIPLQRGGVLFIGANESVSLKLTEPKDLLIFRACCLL

[16] = molecular target: T4, Voltage-gated N-type calcium channel alpha-1B subunit/Amyloid beta A4 precursor protein-binding family A member 1 (Homo sapiens, UniProt Q00975+Q02410); assay type: protein assay
Large T antigen = Large T antigen (Simian virus 40, UniProt P03070); assay type: functional, Betapolyomavirus macacae;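 note: Confirmatory-stage PubChem screen for compounds that inhibit SV40 T antigen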
[17] = growth suppression of beta-catenin-knockout colon cells, dose response, cell-based, HCT116, human colon tumor (AID 1045); assay type: functional;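 note: HCT116 colon tumor cells with beta catenin knocked out; cells exposed to compound for 60 hours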
[18] = molecular target: Glucose-6-phosphate 1-dehydrogenase (Homo sapiens, UniProt P11413); assay: human G6PD enzyme inhibitors, dose response, selectivity assay for P. falciparum G6PD inhibitor project, biochemical, fluorescence (AID 504792); assay type: functional
Beta-galactosidase = Beta-galactosidase (Escherichia coli, UniProt Q8VNN2); assay: beta-galactosidase enzyme inhibitors and activators, dose response, artefact control for CCR6 antagonist project, biochemical, E. coli enzyme, set 3 (AID 504712); assay type: functional
[19] = growth suppression of PTEN-null colon cells, dose response, cell-based, HCT116 PTEN knockout (AID 1047); assay type: functional;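 note: HCT116 colon tumor cells with PTEN knocked out; cells exposed to compound for 60 hours before readout; potency for loss of cell viability measured by luminescence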
[20] = molecular target: T4, Voltage-gated N-type calcium channel alpha-1B subunit/Amyloid beta A4 precursor protein-binding family A member 1; assay type: protein assay; remark: listed apart in the source
[21] = SV40 cytopathic effect inhibition and cytotoxicity, confirmation, SV40 T antigen inhibitor project, BSC cells (AID 2615); assay type: functional, cell-based
[22] = Fluorescence-based cell-based high throughput dose response assay for inhibitors of the interaction of nucleotide-binding oligomerization domain containing 2 (NOD2) and the receptor-interacting serine-threonine kinase 2 (RIPK2).; assay type: functional; conditions: Homo sapiens
Coagulation factor XII = molecular target: T5, Coagulation factor XII (Homo sapiens, UniProt P00748); assay: FXIIa inhibitor potency, concentration-response, biochemical (AID 716); assay type: functional
T5 sequence (P00748 whole entry): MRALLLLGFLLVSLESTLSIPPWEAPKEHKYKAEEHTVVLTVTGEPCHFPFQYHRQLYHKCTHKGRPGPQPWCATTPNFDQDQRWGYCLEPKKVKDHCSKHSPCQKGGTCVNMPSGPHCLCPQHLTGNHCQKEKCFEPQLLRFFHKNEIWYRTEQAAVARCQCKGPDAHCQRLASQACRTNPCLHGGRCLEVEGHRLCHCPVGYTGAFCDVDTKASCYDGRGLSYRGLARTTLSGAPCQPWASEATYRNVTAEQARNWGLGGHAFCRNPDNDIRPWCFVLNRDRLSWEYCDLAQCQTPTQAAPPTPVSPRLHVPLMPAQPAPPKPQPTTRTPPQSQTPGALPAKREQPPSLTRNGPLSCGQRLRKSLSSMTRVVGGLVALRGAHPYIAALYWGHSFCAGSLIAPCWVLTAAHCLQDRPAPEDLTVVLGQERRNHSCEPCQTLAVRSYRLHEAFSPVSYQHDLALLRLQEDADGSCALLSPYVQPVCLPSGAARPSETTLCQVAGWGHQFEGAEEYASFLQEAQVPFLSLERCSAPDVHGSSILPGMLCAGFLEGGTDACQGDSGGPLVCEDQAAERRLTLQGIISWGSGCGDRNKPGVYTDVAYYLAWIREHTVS

[23] = molecular target: Delta-type opioid receptor (Homo sapiens, UniProt P41143); assay: SAR Analysis of Antagonists of the DOR Receptor using an Image-Based Assay - Set 2. [Related pubchem assays (depositor defined):AID1777, AID1785, AID1786, AID1966, AID2133, AID2136, AID2284, AID2285, AID2357]; assay type: functional
[24] = molecular target: T6, Kappa-type opioid receptor (Homo sapiens, UniProt P41145); assay: SAR analysis of Antagonists of the Kappa Opioid Receptor (KOR) using an Image-Based Assay - Set 2. [Related pubchem assays (depositor defined):AID1777, AID1785, AID1786, AID1966, AID2133, AID2136, AID2284, AID2285, AID2348]; assay type: functional
[25] = molecular target: T6, Kappa-type opioid receptor; assay: SAR analysis of small molecule agonists of the kappa opioid receptor via a luminescent beta-arrestin assay - Set 2. [Related pubchem assays (depositor defined):AID1777, AID1785, AID1786, AID1966, AID2133, AID2136, AID2284, AID449737]; assay type: functional

T4 sequence (Q00975 whole entry): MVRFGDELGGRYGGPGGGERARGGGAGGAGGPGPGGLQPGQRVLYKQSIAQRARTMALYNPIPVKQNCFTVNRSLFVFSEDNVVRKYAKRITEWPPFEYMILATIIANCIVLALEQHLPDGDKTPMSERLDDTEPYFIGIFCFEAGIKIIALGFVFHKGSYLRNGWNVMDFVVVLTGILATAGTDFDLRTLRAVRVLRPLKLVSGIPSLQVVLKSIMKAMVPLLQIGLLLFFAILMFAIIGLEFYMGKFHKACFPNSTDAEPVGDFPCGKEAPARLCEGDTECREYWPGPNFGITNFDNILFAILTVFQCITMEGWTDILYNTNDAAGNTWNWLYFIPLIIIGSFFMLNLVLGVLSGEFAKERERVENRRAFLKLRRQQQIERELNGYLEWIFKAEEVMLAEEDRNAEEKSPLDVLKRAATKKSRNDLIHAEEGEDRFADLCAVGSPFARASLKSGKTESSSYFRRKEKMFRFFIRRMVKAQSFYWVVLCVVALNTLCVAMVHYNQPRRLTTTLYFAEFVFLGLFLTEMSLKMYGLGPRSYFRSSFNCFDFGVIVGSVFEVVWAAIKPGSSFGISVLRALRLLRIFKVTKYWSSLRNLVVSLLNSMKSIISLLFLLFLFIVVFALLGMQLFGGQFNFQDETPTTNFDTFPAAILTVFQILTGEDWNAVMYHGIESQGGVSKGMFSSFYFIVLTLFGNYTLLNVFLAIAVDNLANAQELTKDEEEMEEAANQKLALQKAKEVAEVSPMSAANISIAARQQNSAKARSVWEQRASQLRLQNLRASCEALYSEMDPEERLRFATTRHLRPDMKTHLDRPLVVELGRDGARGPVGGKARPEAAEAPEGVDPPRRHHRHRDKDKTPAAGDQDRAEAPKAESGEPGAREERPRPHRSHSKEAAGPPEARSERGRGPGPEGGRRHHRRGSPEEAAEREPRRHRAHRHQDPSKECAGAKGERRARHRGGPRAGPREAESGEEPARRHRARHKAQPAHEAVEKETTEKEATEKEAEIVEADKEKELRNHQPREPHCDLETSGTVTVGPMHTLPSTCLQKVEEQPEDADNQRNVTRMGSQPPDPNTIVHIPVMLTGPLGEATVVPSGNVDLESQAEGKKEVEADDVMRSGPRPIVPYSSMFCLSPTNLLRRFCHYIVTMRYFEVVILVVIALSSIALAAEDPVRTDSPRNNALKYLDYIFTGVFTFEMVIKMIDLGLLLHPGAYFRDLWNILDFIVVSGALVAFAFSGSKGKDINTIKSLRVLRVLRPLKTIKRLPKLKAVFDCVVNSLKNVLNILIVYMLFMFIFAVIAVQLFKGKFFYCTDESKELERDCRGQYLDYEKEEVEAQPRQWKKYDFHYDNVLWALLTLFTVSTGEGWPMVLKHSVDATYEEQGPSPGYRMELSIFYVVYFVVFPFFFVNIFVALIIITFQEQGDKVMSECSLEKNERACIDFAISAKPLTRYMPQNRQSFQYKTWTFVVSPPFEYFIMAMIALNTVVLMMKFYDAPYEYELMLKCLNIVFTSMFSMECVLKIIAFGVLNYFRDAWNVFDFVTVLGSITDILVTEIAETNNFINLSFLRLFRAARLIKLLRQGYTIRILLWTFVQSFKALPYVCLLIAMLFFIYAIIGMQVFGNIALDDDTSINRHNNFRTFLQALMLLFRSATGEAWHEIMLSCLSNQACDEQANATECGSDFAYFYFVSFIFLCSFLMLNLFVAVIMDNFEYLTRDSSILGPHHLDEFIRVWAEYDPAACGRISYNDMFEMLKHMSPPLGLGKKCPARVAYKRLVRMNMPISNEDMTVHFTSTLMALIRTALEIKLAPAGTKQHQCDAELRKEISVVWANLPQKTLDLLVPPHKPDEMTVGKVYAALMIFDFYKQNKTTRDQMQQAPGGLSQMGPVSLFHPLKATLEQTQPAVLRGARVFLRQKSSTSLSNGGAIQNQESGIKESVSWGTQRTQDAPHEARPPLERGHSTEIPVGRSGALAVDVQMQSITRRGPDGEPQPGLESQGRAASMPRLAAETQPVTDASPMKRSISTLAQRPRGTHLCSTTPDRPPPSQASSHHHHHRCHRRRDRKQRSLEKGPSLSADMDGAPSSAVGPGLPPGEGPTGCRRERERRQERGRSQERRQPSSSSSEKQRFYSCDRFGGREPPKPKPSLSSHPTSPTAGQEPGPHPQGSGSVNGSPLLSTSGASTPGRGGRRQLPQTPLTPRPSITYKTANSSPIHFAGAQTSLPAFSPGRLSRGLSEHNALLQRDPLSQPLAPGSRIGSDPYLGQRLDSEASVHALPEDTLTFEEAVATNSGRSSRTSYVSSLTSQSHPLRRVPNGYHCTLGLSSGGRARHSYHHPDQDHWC
T4 sequence (Q02410 whole entry): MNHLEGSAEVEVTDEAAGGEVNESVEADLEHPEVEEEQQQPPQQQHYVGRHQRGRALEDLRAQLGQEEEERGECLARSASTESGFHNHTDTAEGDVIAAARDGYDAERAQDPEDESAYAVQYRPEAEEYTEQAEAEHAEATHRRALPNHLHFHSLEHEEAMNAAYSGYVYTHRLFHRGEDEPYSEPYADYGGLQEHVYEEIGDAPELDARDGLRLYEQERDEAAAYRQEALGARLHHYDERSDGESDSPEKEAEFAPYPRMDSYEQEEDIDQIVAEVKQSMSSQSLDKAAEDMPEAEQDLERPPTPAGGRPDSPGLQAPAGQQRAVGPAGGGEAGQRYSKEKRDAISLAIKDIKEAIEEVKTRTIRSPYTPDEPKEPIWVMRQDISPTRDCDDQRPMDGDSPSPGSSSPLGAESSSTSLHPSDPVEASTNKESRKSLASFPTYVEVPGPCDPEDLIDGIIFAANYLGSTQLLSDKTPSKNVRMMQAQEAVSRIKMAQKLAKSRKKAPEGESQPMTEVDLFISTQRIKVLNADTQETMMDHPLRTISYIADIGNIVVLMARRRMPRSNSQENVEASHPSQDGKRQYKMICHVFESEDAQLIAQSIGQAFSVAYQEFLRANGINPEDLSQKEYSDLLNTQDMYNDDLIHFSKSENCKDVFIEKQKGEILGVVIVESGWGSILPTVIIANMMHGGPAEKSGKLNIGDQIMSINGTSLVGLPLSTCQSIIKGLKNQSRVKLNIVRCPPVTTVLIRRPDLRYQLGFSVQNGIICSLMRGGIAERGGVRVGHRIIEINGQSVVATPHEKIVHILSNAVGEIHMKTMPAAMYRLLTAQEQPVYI
T6 sequence (P41145 whole entry): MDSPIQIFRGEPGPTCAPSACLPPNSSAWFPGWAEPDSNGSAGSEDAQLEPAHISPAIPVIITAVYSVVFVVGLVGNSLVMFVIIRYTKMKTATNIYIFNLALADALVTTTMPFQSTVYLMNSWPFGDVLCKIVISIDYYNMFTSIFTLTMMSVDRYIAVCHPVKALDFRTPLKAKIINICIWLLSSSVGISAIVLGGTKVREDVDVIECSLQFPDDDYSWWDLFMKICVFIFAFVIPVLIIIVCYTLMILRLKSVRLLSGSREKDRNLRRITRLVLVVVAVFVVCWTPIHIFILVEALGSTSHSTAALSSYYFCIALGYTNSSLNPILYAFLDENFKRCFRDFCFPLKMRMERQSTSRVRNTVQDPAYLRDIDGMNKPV
Sequence of Delta-type opioid receptor (P41143 whole entry): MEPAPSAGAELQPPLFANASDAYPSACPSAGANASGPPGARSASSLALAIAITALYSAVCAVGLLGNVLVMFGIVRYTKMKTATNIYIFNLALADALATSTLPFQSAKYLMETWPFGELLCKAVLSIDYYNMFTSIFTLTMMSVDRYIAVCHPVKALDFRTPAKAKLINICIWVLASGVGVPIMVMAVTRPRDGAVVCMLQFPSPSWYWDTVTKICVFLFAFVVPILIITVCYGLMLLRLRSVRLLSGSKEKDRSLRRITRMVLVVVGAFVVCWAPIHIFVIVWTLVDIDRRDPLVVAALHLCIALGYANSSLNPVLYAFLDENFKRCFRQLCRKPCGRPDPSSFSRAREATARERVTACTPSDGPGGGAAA
Sequence of Neurotensin receptor type 1 (P30989 whole entry): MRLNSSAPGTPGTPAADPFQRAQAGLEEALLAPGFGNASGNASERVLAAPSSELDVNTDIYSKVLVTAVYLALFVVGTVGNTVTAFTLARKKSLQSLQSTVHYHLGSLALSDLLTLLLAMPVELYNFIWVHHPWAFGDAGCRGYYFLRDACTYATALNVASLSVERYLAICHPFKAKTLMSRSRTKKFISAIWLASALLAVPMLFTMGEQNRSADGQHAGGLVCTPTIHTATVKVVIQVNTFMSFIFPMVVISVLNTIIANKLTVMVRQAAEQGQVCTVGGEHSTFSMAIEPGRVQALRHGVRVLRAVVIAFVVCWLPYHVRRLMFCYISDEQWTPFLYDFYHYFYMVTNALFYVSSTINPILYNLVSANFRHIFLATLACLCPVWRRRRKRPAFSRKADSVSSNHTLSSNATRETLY
Sequence of Large T antigen (P03070 whole entry): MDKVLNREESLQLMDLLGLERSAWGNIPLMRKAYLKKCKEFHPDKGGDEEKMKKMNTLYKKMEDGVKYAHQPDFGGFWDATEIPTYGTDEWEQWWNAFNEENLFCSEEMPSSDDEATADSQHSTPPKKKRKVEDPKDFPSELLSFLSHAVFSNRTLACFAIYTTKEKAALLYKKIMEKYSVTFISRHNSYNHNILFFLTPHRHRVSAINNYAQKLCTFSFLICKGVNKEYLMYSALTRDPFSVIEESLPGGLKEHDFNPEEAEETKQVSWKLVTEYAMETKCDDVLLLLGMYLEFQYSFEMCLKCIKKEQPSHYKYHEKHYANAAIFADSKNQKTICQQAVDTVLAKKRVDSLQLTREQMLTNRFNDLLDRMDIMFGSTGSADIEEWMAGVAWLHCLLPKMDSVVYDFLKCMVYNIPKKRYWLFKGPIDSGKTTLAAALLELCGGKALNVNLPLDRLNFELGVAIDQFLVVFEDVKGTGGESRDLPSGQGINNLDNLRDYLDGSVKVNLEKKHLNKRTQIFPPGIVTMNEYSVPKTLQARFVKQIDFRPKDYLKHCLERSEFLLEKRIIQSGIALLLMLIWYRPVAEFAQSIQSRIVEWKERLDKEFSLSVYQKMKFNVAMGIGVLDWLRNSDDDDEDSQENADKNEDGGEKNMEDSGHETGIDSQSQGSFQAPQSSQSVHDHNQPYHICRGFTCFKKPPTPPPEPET

- IC50 [1]: 87.1 µM (active)
SMILES: Cc1ccc(NC(=O)c2sc(=S)n(-c3cc(C)ccc3F)c2N)cc1

- IC50 (Coagulation factor XII): > 50 µM (inactive)
SMILES: COc1ccc(NC(=O)CSc2nnc(CNC(=O)COc3ccc(Cl)cc3)o2)c(OC)c1

Further lines, the compound ahead of its results:

SMILES: CC1CCC(C(C)C)C(OC(=O)Cn2c(COc3ccccc3)[n+](C)c3ccccc32)C1 (centres undefined)
- AC50 [2]: 6.69 µM (active)
- EC50 [3]: > 60 µM (not active)
- EC50 [4]: 0.588 µM (active)
- AC50 (INS1): 6.26 µM (active)
- AC50 [5]: 3.26 µM (active)
- EC50 [6]: > 32 µM (inactive)
- IC50 (HEK293 [7]): 17.4 µM (inactive)
- EC50 (HEK293 [8]): > 54.7 µM (inactive)
- AC50 [9]: 6.35 µM (active)
- EC50 [10]: 14 µM (active)
- EC50 (Insulin-degrading enzyme [11]): > 54.7 µM (inactive)
- AC50 [12]: 6.94 µM (active)
- AC50 [13]: 8.6 µM (active)
- EC50 (Insulin-degrading enzyme [14]): > 54.7 µM (inactive)

SMILES: ClC(Cl)(c1nnnn1-c1ccccc1)c1nnnn1-c1ccccc1
- IC50 [15]: > 50 µM (not active)
- IC50 [16]: 4.38 µM (active)
- IC50 (Large T antigen): 5.47 µM (active)
- EC50 [17]: 9.79 µM (active)
- IC50 [18]: > 80 µM (inactive)
- IC50 (Beta-galactosidase): > 66.6 µM (inactive)
- EC50 [19]: 10.8 µM (active)
- IC50 [20]: 5.93 µM (active)
- IC50 [21]: 10 µM (active)
- IC50 [22]: 5.41 µM (active)

SMILES: CC[C@@](C)(C(=O)Nc1ccc(Br)cc1)N(Cc1ccco1)C(=O)c1ccccn1
- IC50 [23]: > 32 µM (inactive)
- IC50 [24]: > 32 µM (inactive)
- EC50 [25]: 0.0523 µM (active)
